Assay results published in patent US20260085069A1, “PRODRUGS” (Cambridge Enterprise Limited, priority 2022, published 2026).
≈ marks a conversion by molar mass, not a printed value.

What was measured:
[1] = Stability in aqueous media (FaSSIF, SGF, PBS); type: physicochemical; details: for FaSSIF (pH 6.5) % remaining 1 h / FaSSIF (pH 6.5) % remaining 6 h / FaSSIF (pH 6.5) % remaining 24 h: FaSSIF pH 6.5, 37° C.; for PBS (pH 7.4) % remaining 1 h / PBS (pH 7.4) % remaining 6 h / PBS (pH 7.4) % remaining 24 h: PBS pH 7.4, 37° C.; for SGF (pH 1.2) % remaining 1 h / SGF (pH 1.2) % remaining 6 h / SGF (pH 1.2) % remaining 24 h: SGF pH 1.2, 37° C.
Protocol: 10 μL of a 10 mM stock solution of the Examples were dissolved in 490 μL DMSO to afford […] working solution SGF (pH 1.2):
Dissolve 0.04 g NaCl and 0.064 g pepsin in 0.14 mL HCl and add sufficient water to 20 mL volume. The pH of the test solution was 1.20±0.05.
0.056% (w/v) lecithin, 0.161% (w/v) sodium taurocholate, 0.39% (w/v) monobasic potassium phosphate, 0.77% (w/v) potassium chloride, deionized H2O. The pH of the test solution was 6.5±0.05.
30 mL of 10×PBS (pH7.4) was added into a 50 mL flask and diluted with water. The solution was mixed well and adjusted to pH 7.4 with 1 N HCl.
2 μL of the 200 μL working solution of the Examples was added into 96-deep-well plates for TO, T60, T120, T360 and T1440 timepoints. Duplicates were prepared.
Stability studies were commenced by the addition of 198 μL of the required media (e.g. Simulated Gastric Fluid pH 1.2 [SGF], Simulated Fasted State Intestinal Fluid pH 6.5 [FaSSIF]) and Phosphate Buffered Saline pH 7.4 [PBS]) to each well except TO. The samples were incubated at 37° C. at 600 rpm for the appointed time. The samples at the corresponding timepoint were removed and immediately mixed with 400 μL of cold acetonitrile containing 200 ng/mL tolbutamide and labetalol (internal standard). The samples were centrifuged at 4000 rpm at 4° C. for 20 minutes. 60 μL of the supernatant was removed and mixed with 180 μL purified water and thoroughly mixed and analysed by LCMS (Shimadzu LC 30-AD, ACQUITY UPLC BEH Phenyl 1.7 um 2.1*50 mm Part No. 186002884, with mobile phase A: 0.1% formic acid in water, mobile phase B: 0.1% formic acid in acetonitrile). Formation of parent was also monitored as a metabolite.
Samples were analysed by Mass Spectrometry QTRAP 6500+.

[2] = Solubility in simulated fluids (kinetic solubility, 24 hours); type: physicochemical; details: thermodynamic from solid, 24 hour timepoint, room temperature
Protocol: A known quantity of the Examples and control compounds were weighed into a suitable vessel (whatman miniuniprep vials) and a known volume of the required media was added (e.g. Simulated Gastric Fluid pH 1.2 [SGF], Simulated Fasted State Intestinal Fluid pH 6.5 [FaSSIF] or Phosphate Buffered Saline pH 7.4 [PBS]). The samples were subjected to vortex mixing for 2 minutes followed by agitation on a shaker for 24 hours at room temperature at 800 rpm.

[3] = type: in vitro ADME; details: rat plasma, 37° C.
Protocol: 5 μL of a 10 mM stock solution of the Examples were dissolved in 495 μL DMSO to afford 500 μL working solution Assay procedure:
98 μL plasma was added to each well of a 96-well reaction plate, using one plate per timepoint (Blank, TO, T10, T30, T60, and T120). 2 μL of working solution was added to each well of the reaction plates except Blank. Each plate was incubated at 37° C. for the indicated timepoint (0, 10, 30, 60, 120 minutes). At the end of incubation, 400 μL of stop solution (200 ng/mL tolbutamide and 200 ng/mL labetalol in 0.1% FA in ACN) was added to precipitate protein. The plates were then sealed and shaken for 20 minutes before centrifugation at 4000 rpm for 20 minutes. […] Formation of parent was also monitored as a metabolite.

[4] = simulated gastric fluid, SGF (pH 1.2)

Row | SMILES | FaSSIF (pH 6.5) % remaining 1 h [1] [%] | FaSSIF (pH 6.5) % remaining 6 h [1] [%] | FaSSIF (pH 6.5) % remaining 24 h [1] [%] | PBS (pH 7.4) % remaining 1 h [1] [%] | PBS (pH 7.4) % remaining 6 h [1] [%] | PBS (pH 7.4) % remaining 24 h [1] [%] | SGF (pH 1.2) % remaining 1 h [1] [%] | SGF (pH 1.2) % remaining 6 h [1] [%] | SGF (pH 1.2) % remaining 24 h [1] [%] | solubility kinetic at 24 h [2, 4] [µg/mL] | solubility kinetic at 24 h ([2]; FaSSIF (pH 6.5)) [µg/mL] | % Example remaining 0 min [3] [%] | Example concentration (nM) 0 min [3] [nM] | % Example remaining 10 min [3] [%] | Example concentration (nM) 10 min [3] [nM]
1 | Cc1oc(=O)oc1COC(=O)c1ccc2c(c1)nc(OCCOCCCCNCc1cc(F)c(OC(F)(F)F)c(F)c1)c1ccncc12 [Example 7, (5-methyl-2-oxo-1,3-dioxol-4-yl)methyl 5-(2-(4-((3,5-difluoro-4-(trifluoromethoxy)benzyl)amino)butoxy)ethoxy)benzo[c][2,6]naphthyridine-8-carboxylate] | 101.0 | 93.5 | 89.1 | 78.9 | 16.7 | 0.7 | 98.9 | 67.2 | 26.9 | 18.5 (≈ 27.3 µM) | 76.1 (≈ 112 µM) | 100.0 | 1887.9 | 0.1 | 1.2
2 | CC(C)(C)C(=O)OCOC(=O)c1ccc2c(c1)nc(OCCOCCCCNCc1cc(F)c(OC(F)(F)F)c(F)c1)c1ccncc12 [Example 6, (pivaloyloxy)methyl 5-(2-(4-((3,5-difluoro-4-(trifluoromethoxy)benzyl)amino)butoxy)ethoxy)benzo[c][2,6]naphthyridine-8-carboxylate] | 112.8 | 97.0 | 109.4 | 85.2 | 27.7 | 5.1 | 88.8 | 59.8 | 20.0 | – | – | 100.0 | 1779.1 | 0.3 | 5.0
3 | COC(=O)c1ccc2c(c1)nc(OCCOCCCCNCc1cc(F)c(OC(F)(F)F)c(F)c1)c1ccncc12 [Example 4, methyl 5-(2-(4-((3,5-difluoro-4-(trifluoromethoxy)benzyl)amino)butoxy)ethoxy)benzo[c][2,6]naphthyridine-8-carboxylate] | 90.0 | 86.6 | 93.3 | 70.3 | 22.4 | 7.9 | 93.7 | 63.7 | 16.5 | – | – | – | – | – | –
4 | CC(C)(C)OC(=O)OCOC(=O)c1ccc2c(c1)nc(OCCOCCCCNCc1cc(F)c(OC(F)(F)F)c(F)c1)c1ccncc12 [Example 15, ((tert-butoxycarbonyl)oxy)methyl 5-(2-(4-((3,5-difluoro-4-(trifluoromethoxy)benzyl)amino)butoxy)ethoxy)benzo[c][2,6]naphthyridine-8-carboxylate] | 99.0 | 97.9 | 98.6 | 100.3 | 49.7 | 7.9 | 47.5 | 3.8 | 1.8 | – | – | – | – | – | –
5 | COC(=O)OCOC(=O)c1ccc2c(c1)nc(OCCOCCCCNCc1cc(F)c(OC(F)(F)F)c(F)c1)c1ccncc12 [Example 11, ((methoxycarbonyl)oxy)methyl 5-(2-(4-((3,5-difluoro-4-(trifluoromethoxy)benzyl)amino)butoxy)ethoxy)benzo[c][2,6]naphthyridine-8-carboxylate] | 96.4 | 97.5 | 105.9 | 81.2 | 29.3 | 19.0 | 100.2 | 66.3 | 21.5 | – | – | – | – | – | –
6 | CC(C)C(=O)OCOC(=O)c1ccc2c(c1)nc(OCCOCCCCNCc1cc(F)c(OC(F)(F)F)c(F)c1)c1ccncc12 [Example 5, (isobutyryloxy)methyl 5-(2-(4-((3,5-difluoro-4-(trifluoromethoxy)benzyl)amino)butoxy)ethoxy)benzo[c][2,6]naphthyridine-8-carboxylate] | 100.2 | 97.5 | 98.8 | 76.2 | 7.9 | 2.4 | 87.0 | 55.5 | 13.0 | – | – | – | – | – | –
7 | O=C(OCOC(=O)c1ccc2c(c1)nc(OCCOCCCCNCc1cc(F)c(OC(F)(F)F)c(F)c1)c1ccncc12)OC1CCOCC1 [Example 16, ((((tetrahydro-2H-pyran-4-yl)oxy)carbonyl)oxy)methyl 5-(2-(4-((3,5-difluoro-4-(trifluoromethoxy)benzyl)amino)butoxy)ethoxy)benzo[c][2,6]naphthyridine-8-carboxylate] | 95.5 | 104.4 | 95.7 | 93.8 | 37.9 | 7.1 | 95.4 | 63.0 | 19.4 | 39.4 (≈ 54.4 µM) | 99.4 (≈ 137 µM) | 100.0 | 1845.9 | 0.1 | 2.7
8 | CC(C)OC(=O)c1ccc2c(c1)nc(OCCOCCCCNCc1cc(F)c(OC(F)(F)F)c(F)c1)c1ccncc12 [Example 2, isopropyl 5-(2-(4-((3,5-difluoro-4-(trifluoromethoxy)benzyl)amino)butoxy)ethoxy)benzo[c][2,6]naphthyridine-8-carboxylate] | 95.4 | 80.5 | 87.2 | 74.5 | 31.0 | 11.5 | 97.1 | 57.9 | 19.6 | – | – | – | – | – | –
9 | CN(C)CCOC(=O)c1ccc2c(c1)nc(OCCOCCCCNCc1cc(F)c(OC(F)(F)F)c(F)c1)c1ccncc12 [Example 3, 2-(dimethylamino)ethyl 5-(2-(4-((3,5-difluoro-4-(trifluoromethoxy)benzyl)amino)butoxy)ethoxy)benzo[c][2,6]naphthyridine-8-carboxylate] | 102.2 | 101.8 | 98.6 | 71.8 | 17.8 | 1.3 | 90.6 | 76.1 | 33.5 | – | – | 100.0 | 1830.9 | 0.1 | 2.7
